# Laboratory results published in patent US20080076926A1, “Process for the preparation of 4-hydroxythieno[2,3-b]pyridine-5-carbonitriles” (priority 2006, published 2008).
row,SMILES,melting point [°C]
1,"Cc1csc2[nH]cc(C#N)c(=O)c12 [Example 3, 3-methyl-4-oxo-4,7-dihydrothieno[2,3-b]pyridine-5-carbonitrile]",285
2,"CC(C)c1c(I)sc2ncc(C#N)c(Cl)c12 [Example 8, 4-chloro-2-iodo-3-isopropylthieno[2,3-b]pyridine-5-carbonitrile]",177 to 179
3,"Cc1cc2c(Cl)c(C#N)cnc2s1 [Example 10, 4-chloro-2-methylthieno[2,3-b]pyridine-5-carbonitrile]",110 to 112
4,"N#Cc1cnc2sc(-c3ccccc3)cc2c1Cl [Example 16, 4-chloro-2-phenylthieno[2,3-b]pyridine-5-carbonitrile]",202 to 204
5,"N#Cc1cnc2sc(Br)cc2c1O [Example 30, 2-bromo-4-hydroxythieno[2,3-b]pyridine-5-carbonitrile]",> 255
